In patent US9579334B2, “Iminosugars and methods of treating viral diseases” (Emergent Virology LLC, priority 2009, dated 2017):

Columns and labels:
Vero cells = assay: Cytotoxicity towards Vero cells, LDH assay; assay type: cell-based, African green monkey; details: for toxicity to the Vero cells: 0.122 up to 500 uM
Procedure: Procedure. NB-DNJ, NN-DNJ and N7-O-DNJ at concentrations from 0.122 up to 500 uM were tested for cytotoxicity towards Vero cells. Vero cells (Afrika green monkey kidney epithelial cell line) obtained from American Type Culture Collection (ATCC, Manassas, Va.) were plated in cell culture treated 96-well flat bottom plates 24 hr prior to assay. Test were done in modified Eagle medium, supplemented with 2% fetal bovine serum, 2 mM L-glutamine, 100 U/ml penicillin, 100 ug/ml streptomycin, starting at 500 μM compounds, decreasing to 0.122 uM. Cells were cultured at 37° C., 5% CO2 incubator and the plates were assayed by LDH assay (CytoTox96, Promega, Wis.) according to the manufacturer's recommendations for induced cellular damage (release of cytoplasmic enzyme lactate dehydrogenase). OD readings were used to calculate and compare percent cytopathic effect of cells treated with compounds or controls. […] NN-DNJ begins to show toxicity to the cells at concentrations above ˜20 uM.

Dengue 2 strain S221 = assay: Protection of AG129 mice against Dengue virus (survival); assay type: in vivo
Procedure: FIGS. 10 and 11 A-C show protection of mice against Dengue virus by UV-4 (N9-DNJ). In this model, AG129 mice, which are 129/Sv mice lacking receptors for both alpha/beta interferon and IFN-gamma, are infected with Dengue 2 strain S221 via intravenous injection. The mice die of TNF-a mediated acute/early death 4-5 days after infection, see Shresta, S., et al., J Virol, 2006. 80(20): p. 10208-17. Each experiment group contained 5 mice sex matched and 5-6 weeks old. The mice were injected intravenously via the tail vein with 10^11 genomic equivalents of DENV2 strain S221 30 min after the first N9-DNJ dose was administered orally. The N9-DNJ was administered orally twice daily at 200, 100, 50 and 10 mg/kg. The antiviral compound Ribavirin 100 mg/kg was given subcutaneously once daily and included as a positive control together with a PBS-only group. Animals displaying severe illness during the experiment (as determined by 20% weight loss, extreme lethargy, ruffled coat, or paralysis) were euthanized.

Compound: CCCOCCCCCCN1C[C@H](O)[C@@H](O)[C@H](O)[C@H]1CO [N7-O-DNJ, N-(7-Oxadecyl)deoxynojirimycin]
- toxicity to the Vero cells (Vero cells): non-toxic

Compound: COCCCCCCCCCN1C[C@H](O)[C@@H](O)[C@H](O)[C@H]1CO [N9-DNJ, N-(9-Methoxynonyl) deoxynojirimycin]
- survival, p vs. PBS (Dengue 2 strain S221; 10 mg/kg orally twice daily): 0.034
- survival, p vs. PBS (Dengue 2 strain S221; 100 mg/kg orally twice daily): 0.002
- survival (Dengue 2 strain S221; DENV2 S221 i.v., orally twice daily at 200, 100, 50 and 10 mg/kg, all drug concentrations): statistically significant improvement in survival

Compound: CCCCN1C[C@H](O)[C@@H](O)[C@H](O)[C@H]1CO [NB-DNJ, N-Butyl deoxynojirimycin]
- toxicity to the Vero cells (Vero cells): non-toxic

Compound: CCCCCCCCCN1C[C@H](O)[C@@H](O)[C@H](O)[C@H]1CO [NN-DNJ, N-Nonyl dexoynojirimycin]
- concentration above which toxicity to the cells begins to show (Vero cells; Vero cells): > 20 µM
